The results in this text go back to PubChem BioAssay (NCI).

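Five compound concentrations were applied to cells in 96-well plates for 48 hours; endpoints were derived by simple linear interpolation of the resulting dose-response curve. The concentration for 50% growth inhibition is given as GI50. TGI: total growth inhibition.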

Some test systems named below: A498 renal; SK-MEL-28 melanoma; HCC-2998 colon; RPMI-8226 leukemia; HL-60(TB) leukemia; MCF7 breast; BT-549 breast; EKVX NSCLC; UO-31 renal; HCT-116 colon.
Common to all, as to experiment: DTP human tumour cell line panel, 48 h

Broadly, the TGI is the concentration at which net growth stops. For orientation: GI50 means the concentration at which growth is held to half of that of the control. On to `O=C(O)c1ccc2cccnc2c1O`, for which the TGI is over 92.4 µM in the assay on A498 renal; over 100 µM in the assay with SK-MEL-28 melanoma; 37.5 µM with HCC-2998 colon; over 21.1 µM in the assay on RPMI-8226 leukemia; 6.43 µM with HL-60(TB) leukemia; over 100 µM in the assay with MCF7 breast. Besides, the concentration for total growth inhibition (TGI) is over 20 µM in the assay with BT-549 breast, over 46 µM in the assay on EKVX NSCLC, 8.65 µM with UO-31 renal and 25 µM in the assay on HCT-116 colon. In addition, the GI50 in the assay with SK-MEL-28 melanoma was 3.69 µM; in the assay with HCC-2998 colon it was 2.32 µM; with RPMI-8226 leukemia, 0.93 µM; in the assay on HL-60(TB) leukemia, 1.89 µM; with MCF7 breast, 1.5 µM; in the assay with BT-549 breast it was 0.561 µM. The GI50 in the assay with EKVX NSCLC was 1.75 µM; with UO-31 renal, 1.14 µM; with HCT-116 colon, 0.532 µM.

Regarding `O[C@H](CN1CC1)[C@@H](O)CN1CC1`, the GI50 with A498 renal was 5.24 µM; with SK-MEL-28 melanoma it was 19.5 µM; in the assay on HCC-2998 colon, 13.8 µM; in the assay on RPMI-8226 leukemia, 6.74 µM; with HL-60(TB) leukemia, 1.22 µM; with MCF7 breast, 1.84 µM. Moreover, the GI50 was 12.6 µM in the assay on BT-549 breast, 15 µM in the assay on EKVX NSCLC, 2.65 µM in the assay on UO-31 renal and 5.83 µM with HCT-116 colon. Also, the concentration for total growth inhibition (TGI) was 21.7 µM in the assay with A498 renal; 84.7 µM with SK-MEL-28 melanoma; 51.3 µM in the assay with HCC-2998 colon; over 100 µM with RPMI-8226 leukemia; over 100 µM in the assay on HL-60(TB) leukemia; over 100 µM with MCF7 breast. Moreover, the concentration for total growth inhibition (TGI) in the assay with BT-549 breast is 60.9 µM; in the assay with EKVX NSCLC it was 49.6 µM; in the assay with UO-31 renal, 13.1 µM; in the assay on HCT-116 colon, 35.6 µM.

Take `COc1cccc2ccc3c(c12)C(=O)OC31CCc2c(C)cccc21` (stereo not drawn): the TGI is 22.7 µM in the assay on A498 renal; over 46.4 µM in the assay on SK-MEL-28 melanoma; over 46.4 µM with HCC-2998 colon; 21.5 µM in the assay with RPMI-8226 leukemia; 32.9 µM in the assay on HL-60(TB) leukemia; 41.9 µM in the assay on MCF7 breast. Also, the TGI with BT-549 breast was over 100 µM; with EKVX NSCLC it was over 46.4 µM; in the assay on UO-31 renal, 26.3 µM; in the assay on HCT-116 colon, over 31.6 µM.

For `Cc1nc2sc(C(=O)Nc3cccc(Cl)c3C)c(N)c2cc1C(C)O` (stereo not drawn), the concentration for 50% growth inhibition (GI50) in the assay with A498 renal was 0.0173 µM; with SK-MEL-28 melanoma, 5.8 µM; with HCC-2998 colon, 0.532 µM; in the assay with RPMI-8226 leukemia, 0.347 µM; in the assay with HL-60(TB) leukemia, 0.092 µM; in the assay on MCF7 breast, 0.103 µM. For the same compound, the GI50 in the assay on BT-549 breast was 0.475 µM; in the assay on EKVX NSCLC, 0.533 µM; with UO-31 renal it was 0.61 µM; in the assay with HCT-116 colon, 0.159 µM. Further, the TGI was 0.544 µM in the assay with A498 renal; over 55.6 µM with SK-MEL-28 melanoma; 26.3 µM in the assay with HCC-2998 colon; over 94 µM with RPMI-8226 leukemia; over 53.2 µM in the assay on MCF7 breast; over 32.3 µM in the assay on BT-549 breast. The concentration for total growth inhibition (TGI) in the assay with EKVX NSCLC is over 77 µM; in the assay on UO-31 renal, 29.2 µM; in the assay with HCT-116 colon, over 35.7 µM.

Consider `N=C1C(c2nc(-c3ccc(Br)cc3)cs2)=C(O)CN1CC1CCCO1` (stereo not drawn), for which the GI50 with A498 renal, in the assay with SK-MEL-28 melanoma, in the assay on HCC-2998 colon, in the assay on RPMI-8226 leukemia, with HL-60(TB) leukemia and in the assay with MCF7 breast was over 100 µM in each case. Moreover, the GI50 in the assay with BT-549 breast, with EKVX NSCLC and in the assay on UO-31 renal was over 100 µM in each case. For the same compound, the TGI in the assay with A498 renal, in the assay with SK-MEL-28 melanoma, in the assay on HCC-2998 colon, in the assay with RPMI-8226 leukemia, in the assay on HL-60(TB) leukemia and with MCF7 breast was over 100 µM throughout. Further, the total growth inhibition concentration (TGI) with BT-549 breast, in the assay on EKVX NSCLC and in the assay with UO-31 renal was over 100 µM throughout.

Take `CCCNc1cccc(-n2ncc3c(N/N=C/c4ccncc4)ncnc32)c1`: the GI50 is 1.12 µM in the assay on A498 renal; over 10 µM in the assay with SK-MEL-28 melanoma; over 25 µM in the assay on HCC-2998 colon; over 25 µM in the assay on RPMI-8226 leukemia; over 5.61 µM in the assay with MCF7 breast; over 8.4 µM with BT-549 breast. Moreover, the values for the GI50 in the assay on EKVX NSCLC and with HCT-116 colon were over 25 µM and 1.82 µM, respectively. Further, the TGI in the assay on A498 renal, with SK-MEL-28 melanoma, with HCC-2998 colon, in the assay with RPMI-8226 leukemia, in the assay on MCF7 breast and with BT-549 breast was over 25 µM in each case. In addition, the concentration for total growth inhibition (TGI) with EKVX NSCLC and with HCT-116 colon was over 25 µM in each case.

With `S=c1[nH]nc(SCc2ccccc2Cl)c2[nH]cnc12`, the TGI with A498 renal, in the assay on SK-MEL-28 melanoma, in the assay on RPMI-8226 leukemia, with HL-60(TB) leukemia, with MCF7 breast and in the assay on BT-549 breast was over 100 µM throughout. Further, the total growth inhibition concentration (TGI) with EKVX NSCLC, in the assay on UO-31 renal and in the assay with HCT-116 colon was over 100 µM in each case.

In the case of `Cn1c(O)c(N=NC(N)=S)c2ccccc21`, the GI50 in the assay with A498 renal was 97.7 µM; with SK-MEL-28 melanoma, over 100 µM; in the assay with HCC-2998 colon, over 100 µM; in the assay with RPMI-8226 leukemia, over 100 µM; in the assay on HL-60(TB) leukemia, 37.9 µM; with MCF7 breast, 20.3 µM. The GI50 is over 100 µM in the assay on BT-549 breast, 2.04 µM in the assay with EKVX NSCLC and 40.9 µM with HCT-116 colon. The concentration for total growth inhibition (TGI) in the assay with A498 renal, in the assay on SK-MEL-28 melanoma, in the assay on HCC-2998 colon, in the assay on RPMI-8226 leukemia, in the assay on HL-60(TB) leukemia and with MCF7 breast was over 100 µM each time. Besides, the concentration for total growth inhibition (TGI) in the assay on BT-549 breast, in the assay with EKVX NSCLC and in the assay with HCT-116 colon was over 100 µM each time.

Regarding `CC(C)N(Cc1ccccc1)S(=O)(=O)c1n[nH]c(C(C)(C)C)n1`, the TGI with A498 renal, in the assay on SK-MEL-28 melanoma, in the assay with RPMI-8226 leukemia, with HL-60(TB) leukemia, in the assay with MCF7 breast and with BT-549 breast was over 100 µM in each case. In addition, the total growth inhibition concentration (TGI) with EKVX NSCLC, in the assay on UO-31 renal and with HCT-116 colon was over 100 µM each time.
